Read-outs that look alike come from different tables or passages of the source.
How the values were obtained:
[1] = In vivo microdialysis of unbound gepotidacin in blood, muscle and prostate of healthy and E. coli infected rats; design: species or system rat; conditions: for Kp uu: rat, iv, 20 mg/kg
Excerpt: The example herein describes microdialysis experiments in E. coli infected rats to measure tissue distribution of unbound gepotidacin. In vivo microdialysis experiments simultaneously determined unbound gepotidacin concentrations in rat prostate, muscle, and blood. It is important to understand the tissue distribution of unbound gepotidacin, especially in the target prostate tissue, since gepotidacin must diffuse through capillary membranes to reach the prostate. An assumption that the plasma concentration of gepotidacin represents a suitable surrogate of prostate concentrations, without prostate tissue confirmation, may lead to erroneous conclusions, especially since the pathogen is localized in the prostate.
(§1) An Escherichia coli prostatitis model in rats was obtained as follows. Four days before microdialysis, rats (n=11) were infected with Escherichia coli ATCC 13441 in the prostatic urethra, to induce E. coli prostatitis, at an inoculum of 10^7 CFU/rat. Healthy rats (n=9) were not infected with E. coli as control.
(§2) The day before the experiment, two CMA/20 probes (membrane length 10 mm, Harvard Apparatus, Courtaboeuf France) were inserted into right jugular vein and the right hind leg muscle of healthy and infected rats under anesthesia and analgesic treatment. In parallel, catheters were inserted into the femoral vein and artery to administer gepotidacin intravenously (IV) and to collect blood samples for determination of total plasma gepotidacin concentrations, respectively. The rats were allowed to recover consciousness, and food was withdrawn for 12 hours.
(§3) On the day of the experiment, healthy control and infected rats were re-anesthetized and a CMA/20 Elite probe (membrane length 4 mm) was inserted into the prostate. All probes were connected to infusion pumps and perfused with Ringer containing a calibrator (((R)-1-((4-(((2,3-dihydro-[1,4]oxathiino[2,3-c]pyridin-7-yl)methyl)amino)piperidin-1-yl)methyl)-1,2-dihydro-3H,8H-2a,5,8a-triazaacenaphthylene-3,8-dione; […]) at a flow rate of 0.5 μL/min with Ringer. After an equilibration period, gepotidacin was administered by IV bolus at a dose of 20 mg/kg. Blood, muscle, and prostate dialysates were collected every 10 minutes for 90 minutes, and then every 30 minutes […]. Seven blood samples were also collected for analysis of gepotidacin pharmacokinetics in total plasma. Gepotidacin concentrations were measured in dialysates and in plasma by LC-MS/MS.
Pharmacokinetic (PK) parameters were determined in each individual rat by a noncompartmental approach according to standard procedures and with the software Phoenix WinNonLin 7. (Certara, Princeton, NJ) Total unbound body clearance (CLu) was calculated as CLu=dose/AUCu,blood, where AUCu,blood is the total area under the unbound blood concentration-versus-time curve from zero to infinity, equal to the area under the curve from zero to the last measured concentration AUC0-last,u,blood added to the area under the curve from the last measured concentration to infinity AUClast-infinity,u,blood. AUC0-last,u,blood was calculated by linear-logarithmic trapezoidal method. AUClast-infinity,u,blood the area remaining under the curve after the last measured concentration, C(last)u,blood was determined from C(last)u,blood/keblood. The elimination rate constant (keblood) and its corresponding half-life (t1/2,blood) were estimated by least squares fit of the data points (log concentration-time). The linear-logarithmic trapezoidal method was used to compute the area under the unbound blood concentration-versus-time moment curve AUMC0-last,u,blood from zero to the last measured concentration. AUMClast-infinity,u,blood the area remaining under the curve after the last measured concentration was determined from: tlast×C(last)u,blood/keblood+C(last)u,blood/keblood^2. The mean residence time from zero to infinity, MRT0-infinity was determined from AUMC0-infinity,u,blood/AUC0-infinity,u,blood. […]

[2] = Total plasma pharmacokinetics of gepotidacin in healthy and E. coli infected rats; type: in vivo, rat; conditions: IV bolus 20 mg/kg; for Vd / half-life / clearance: rat, plasma, iv, 20 mg/kg; for clearance: read-out: CLt,plasma
Excerpt: as §1, §2, §3
Pharmacokinetic (PK) parameters were determined in each individual rat by a noncompartmental approach according to standard procedures and with the software Phoenix WinNonLin 7. (Certara, Princeton, NJ) Total unbound body clearance (CLu) was calculated as CLu=dose/AUCu,blood, where AUCu,blood is the total area under the unbound blood concentration-versus-time curve from zero to infinity, equal to the area under the curve from zero to the last measured concentration AUC0-last,u,blood added to the area under the curve from the last measured concentration to infinity AUClast-infinity,u,blood. AUC0-last,u,blood was calculated by linear-logarithmic trapezoidal method. AUClast-infinity,u,blood the area remaining under the curve after the last measured concentration, C(last)u,blood was determined from C(last)u,blood/keblood. The elimination rate constant (keblood) and its corresponding half-life (t1/2,blood) were estimated by least squares fit of the data points (log concentration-time). The linear-logarithmic trapezoidal method was used to compute the area under the unbound blood concentration-versus-time moment curve AUMC0-last,u,blood from zero to the last measured concentration. AUMClast-infinity,u,blood the area remaining under the curve after the last measured concentration was determined from: tlast×C(last)u,blood/keblood+C(last)u,blood/keblood^2. The mean residence time from zero to infinity, MRT0-infinity was determined from AUMC0-infinity,u,blood/AUC0-infinity,u,blood. The volume of distribution (VSSu) was obtained from MRT0-infinity×CLu. The AUCu and t1/2,u in tissues were also estimated by the same procedure.

[3] = healthy rats (n = 9), blood, unbound, IV bolus 20 mg/kg
[4] = healthy rats (n = 9), muscle, unbound, IV bolus 20 mg/kg
[5] = healthy rats (n = 9), prostate, unbound, IV bolus 20 mg/kg
[6] = infected rats (n = 11; E. coli ATCC 13441 prostatitis), blood, unbound, IV bolus 20 mg/kg
[7] = infected rats (n = 11; E. coli ATCC 13441 prostatitis), muscle, unbound, IV bolus 20 mg/kg
[8] = infected rats (n = 11; E. coli ATCC 13441 prostatitis), prostate, unbound, IV bolus 20 mg/kg
[9] = prostatitis (infected) rats, FIG. 1C-1D
[10] = infected rats (n = 11; E. coli ATCC 13441 prostatitis)

O=c1ccc2ncc(=O)n3c2n1C[C@H]3CN1CCC(NCc2cc3c(cn2)OCCC3)CC1 [gepotidacin, (2R)-2-({4-[(3,4-dihydro-2/pyrano[2,3-c]pyridin-6-ylmethyl)amino]-1-piperidinyl}methyl)-1,2-dihydro-3H,8/2a,5,8a-triazaacenaphthylene-3,8-dione]
Half-life and Cmax,u in blood, muscle, and prostate, comparison of tissues ([1]; healthy control rats): similar | Unbound concentration time profile in blood ([1]; healthy control rats, FIG. 1A, 1B): biphasic | Concentration profiles in prostate and muscle relative to blood ([1]; healthy control rats, with the exception of the first time point, FIG. 1A): almost superimposed with blood concentrations | CLu (total unbound body clearance) [1, 3]: 44.4 ± 5.1 mL/min/kg | Cmax,u [1, 3]: 10300 ± 2600 ng/mL | VSSu (volume of distribution) [1, 3]: 3.967 ± 0.557 L/kg | t1/2,u [1, 3]: 1.3 ± 0.317 h | Cmax,u [1, 4]: 8600 ± 2500 ng/mL | t1/2,u [1, 4]: 1.3 ± 0.15 h | Cmax,u [1, 5]: 8200 ± 1900 ng/mL | t1/2,u [1, 5]: 1.13 ± 0.183 h | Cmax in prostate, infected compared to healthy rats ([1]; infected rats): slightly lower compared to healthy rats | Half-lives, comparison of blood, muscle, and prostate ([1]; infected rats): the same between blood, muscle, and prostate | CLu (total unbound body clearance) [1, 6]: 35.8 ± 5.5 mL/min/kg | Cmax,u [1, 6]: 12300 ± 1900 ng/mL | VSSu (volume of distribution) [1, 6]: 3.344 ± 0.59 L/kg | t1/2,u [1, 6]: 1.43 ± 0.383 h | Cmax,u [1, 7]: 9900 ± 3800 ng/mL | t1/2,u [1, 7]: 1.28 ± 0.367 h | Cmax,u [1, 8]: 6600 ± 2700 ng/mL | t1/2,u [1, 8]: 1.38 ± 0.15 h | Muscle/blood and prostate/blood AUCu ratios, infected compared to healthy rats ([1]; infected vs healthy rats, p>0.05, Wilcoxon test, R software): not significantly different | Unbound concentration time profile in blood [1, 9]: biphasic | Unbound concentrations in prostate relative to blood [1, 9]: slightly lower than in blood | Kp uu ([1]; muscle, healthy rats (n = 9), unbound, IV bolus 20 mg/kg, read-out: AUCu muscle/blood): 1.06 ± 0.17 | Kp uu ([1]; muscle, infected rats (n = 11; E. coli ATCC 13441 prostatitis), unbound, IV bolus 20 mg/kg, read-out: AUCu muscle/blood): 1.03 ± 0.13 | Kp uu ([1]; muscle/blood and prostate/blood, healthy control rats, muscle/blood and prostate/blood, read-out: AUCu ratios): ~1 | Kp uu ([1]; prostate, healthy rats (n = 9), unbound, IV bolus 20 mg/kg, read-out: AUCu prostate/blood): 0.89 ± 0.17 | Kp uu ([1]; prostate, infected rats (n = 11; E. coli ATCC 13441 prostatitis), unbound, IV bolus 20 mg/kg, read-out: AUCu prostate/blood): 0.78 ± 0.21 | AUC ([2]; healthy rats (n = 9)): 6750 ± 950 ng·h/mL | AUC [2, 10]: 7870 ± 2380 ng·h/mL | Vd ([2]; healthy rats (n = 9)): 4.26 ± 0.851 L/kg | half-life ([2]; healthy rats (n = 9)): 1.2 ± 0.19 h | clearance ([2]; healthy rats (n = 9)): 50.3 ± 7.1 mL/min/kg | Vd [2, 10]: 4.02 ± 0.997 L/kg | half-life [2, 10]: 1.27 ± 0.165 h | clearance [2, 10]: 45.6 ± 12.8 mL/min/kg
